Data: patent US20200215169A1, “ANTIBACTERIAL METHODS AND RELATED KITS” (THE HENRY M. JACKSON FOUNDATION FOR THE ADVANCEMENT OF …, priority 2017, published 2020)
“Also recorded” adds a separate entry of the source.

Tests used:
[1] = tested on: E. faecalis OG1RF and Δeep biofilms; experiment: Viable cells (CFU) recovered from biofilm biomass after treatment; settings: for decrease in viable biofilm cells: three-hour exposure
Procedure: (§1) Cells were scraped up from the wells of the 96-well plate following the post-treatment washing step, as described above. The scraped up cells were serially diluted and plated to assess the number of colony forming units (CFU) recovered per ml (CFU/ml).
The bacteria were then diluted (10^0-10^−7), and plated on Brain Heart Infusion (BHI) plates. The plates were incubated overnight at 37° C.
These solutions were diluted by serial 10-fold dilutions, and then aliquots of each dilution were plated on BHI agar plates to enumerate the number of viable bacteria present in each solution. In addition, the biofilms in the plate were washed, and then two wells of OG1RF biofilms and two wells of Δeep biofilms were removed by scraping manually with a pipette tip and resuspended in potassium phosphate buffered saline. These dislodged biofilm cell solutions were also diluted by serial 10-fold dilutions, and then aliquots of each dilution were plated on BHI agar plates to enumerate the viable bacteria present in each sample. Finally, the remainder of the biofilm wells were allowed to dry for several hours, and then the biomass in each well was stained with safranin. Excess safranin was washed away, and the plates were dried again. Biofilm biomass was quantified by reading the optical density of safranin-stained wells at OD450 nm.

[2] = tested on: E. faecalis OG1RF and Δeep biofilms; experiment: Biofilm biomass quantified by safranin staining, OD450 nm, 96-well polystyrene plates; assay type: cell-based, Enterococcus faecalis
Procedure: (§2) Biofilms of the two strains were grown overnight in tryptic soy broth without added glucose in the wells of 96-well polystyrene plates at 37° C. The liquid cultures were removed from the plate, and the material remaining in the wells (i.e., the biomass) was washed five times with sterile water.
Both OG1RF and Δeep were streaked on Brain Heart Infusion (BHI) agar plates and incubated at room temperature for two days. Three colonies from each strain were inoculated in BHI broth and incubated overnight at 37° C. 96-well microtiter plate biofilm assays were performed using the overnight cultures diluted in Tryptic Soy Broth (TSB). Biofilm plates were incubated overnight at 37° C. in a moist environment. The microtiter plate was washed with sterile water. […] After incubation, the microtiter plate was washed again with sterile water and left to dry until water was absent in the wells. The plate was stained with safranin, washed again with sterile water, and then read on a plate reader to determine the amount of biofilm in the wells.

[3] = tested on: E. faecalis OG1RF biofilms; settings: cited from earlier work
E. faecalis OG1RF = settings: cited from earlier work
[4] = tested on: planktonic E. faecalis OG1RF and Δeep cells; experiment: Viability of planktonic logarithmic and stationary phase cells exposed to lysozyme; assay type: cell-based, Enterococcus faecalis; settings: 2.5 mg/ml lysozyme, 6 hours
Procedure: Early logarithmic cultures were prepared by diluting overnight cultures 1:100 in BHI broth. To obtain stationary phase cells, BHI broth was inoculated with 3 individual colonies and cultivated for about 18 hours. […] Cultures to which sterile water was added served as controls. Cultures were incubated at 37° C. for 6 hours.

[5] = tested on: E. faecalis strains DS16, FA2-2, JH2-2, VA1128, V583 and 39-5 biofilms; experiment: Biofilm biomass by safranin staining, laboratory strains and clinical isolates; assay type: cell-based, Enterococcus faecalis; settings: strains DS16, VA1128 and V583, methods of Example 1
Procedure: as §2, with “water. […] Following incubation, the lysozyme or buffer solutions were removed, and the wells were washed again as above.” for “water.”
E. faecalis strains DS16, FA2-2, JH2-2, and 39-5 are strains that have been used for laboratory experiments for many years, and E. faecalis strain V583 is a vancomycin-resistant strain that has become the prototype lab strain for studies of vancomycin-resistant E. faecalis. E. faecalis strain VA1128 is a clinical isolate.

[6] = tested on: E. faecalis OG1RF and Δeep biofilms; experiment: Viable cells in the treatment solution (supernatant) removed from biofilms, dispersal check; assay type: cell-based, Enterococcus faecalis; settings: 5 mg/ml hen egg white lysozyme, 3 h, 37° C., either strain
Procedure: To conduct this experiment, the number of viable cells that were present in the buffer or lysozyme solution that was removed from the biofilms following exposure was measured. If viable cells were dispersed from the biofilm following treatment, then one should be able to enumerate viable cells in the lysozyme solution removed from the treated wells.
In this experiment, biofilms of E. faecalis OG1RF and Δeep were grown in 96-well microtiter plates overnight. The biofilms were washed to remove non-adherent cells.

[7] = tested on: E. faecalis strains DS16, FA2-2, JH2-2, VA1128, V583 and 39-5 biofilms; experiment: Viable cells (CFU) recovered from biofilms, laboratory strains and clinical isolates; assay type: cell-based, Enterococcus faecalis; settings: all tested strains, methods of Example 1
Source text: as §1

[8] = 128 μg/ml ampicillin in water, 3 h, OG1RF and Δeep

## Human lysozyme: purified, recombinant human lysozyme available for purchase
[1]; OG1RF and Δeep, recombinant human lysozyme
  decrease in viable cells: > 99.9%
[1]; OG1RF, recombinant human lysozyme
  reduction of viable cells recovered from biofilms: 3.2 log 10 CFU/ml
[1]; Δeep, recombinant human lysozyme
  reduction of viable cells recovered from biofilms: 4.0 log 10 CFU/ml
[2]; recombinant human lysozyme versus buffer
  increase in stained biomass: approximately 3.5 fold

## CC1(C)S[C@@H]2[C@H](NC(=O)[C@H](N)c3ccccc3)C(=O)N2[C@H]1C(=O)O [ampicillin, reference compound]
[3]
  ampicillin concentration to which biofilms are resistant: > 128 µg/mL
[1]; [8]
  change in biofilm cell viability: no changes; also recorded: resistant to any effect
[2]; [8]
  change in biofilm biomass: no changes; also recorded: resistant to any effect
E. faecalis OG1RF
  susceptibility in planktonic conditions: susceptible

## lysozyme: hen egg white lysozyme (EC 3.2.1.17), enzyme that hydrolyzes beta-1,4-linkages of bacterial cell wall peptidoglycan
[1]; 5 mg/ml lysozyme, 37° C.
  viable cells recovered from biofilm at 6 and 24 hours compared to 3 hours: dropped slightly
[1]; OG1RF, 5 mg/ml lysozyme, 3 h, difference in means of 3 biological replicates
  drop in viable cells recovered from biofilm: 2.8 log 10 CFU/ml
[1]; OG1RF, 5 mg/ml lysozyme
  decrease in viable biofilm cells: 99.8%
[1]; lysozyme-treated OG1RF and Δeep biofilms
  viability of biofilm cells versus untreated or buffer (in words): fewer living cells than the untreated strains; also recorded: displayed killing; also recorded: decreased the number of viable biofilm cells
[1]; Δeep, 5 mg/ml lysozyme
  decrease in viable biofilm cells: 99.9%
[4]; OG1RF and Δeep, stationary phase
  decrease in viable cells: about 1.5 log 10 CFU/ml
[4]; OG1RF, logarithmic growth
  decrease in viable cells: no decrease
[2]; 1.25 mg/ml lysozyme
  increase in stained biomass among 0.156, 1.25 and 5 mg/ml: largest increase
[2]; 5 mg/ml hen egg white lysozyme, 3 h, 37° C., OG1RF and Δeep
  biofilm biomass (safranin staining) versus buffer: increased biofilm biomass of equal magnitude for both strains; also recorded: increased equally for both strains; also recorded: greater than the staining in untreated wells
[2]; 5 mg/ml lysozyme, 37° C.
  stained biomass at 6 hours compared to 3 hours: increased slightly
[5]
  biofilm biomass after treatment: increased, to some extent
[6]
  viable cells in lysozyme supernatant: no viable cells above the limit of detection
[7]
  viable cells recovered from biofilms: reduced the number of viable cells
